Measured values reported in ChEMBL document CHEMBL6071212, “Studies of Structure-Activity Relationship of 2-(Pyrrolidin-1ylmethyl)-1H-pyrrole-Based ST2 Inhibitors and Their Inhibition of Mast Cells Activation” (ACS Med Chem Lett, 2024).
Active and inactive are the calls of the source. The calls are words filed in the database; no cut-off is given here.

Columns and labels:
LAD2 [1] = experiment: Inhibition of ST2 in IL-33-stimulated human LAD2 cells assessed as residual activity at 30 uM incubated for 24 hrs by flow cytometry (reference value: 24.18 %); type: cell-based
[2] = Inhibition of ST2/IL-33 (unknown origin) expressed in HEK-Blue IL-33 cells assessed as decrease in NF-kappaB […]; type: cell-based; details: Homo sapiens
[3] = Metabolic stability in mouse liver microsomes assessed as half life; type: ADME, Microsome
[4] = Inhibition of ST2/IL-33 (unknown origin) by AlphaLISA assay; parameters: species or system Homo sapiens
LAD2 [5] = experiment: Inhibition of IL-1beta secretion in IL-33/substance P-stimulated human LAD2 cells at 50 uM incubated for 24 hrs followed by 48/80 addition measured after 30 mins by ELISA; type: functional, cell-based
LAD2 [6] = experiment: Inhibition of IL-1beta secretion in IL-33/substance P-stimulated human LAD2 cells incubated for 24 hrs followed by 48/80 addition measured after 30 mins by ELISA; type: functional, cell-based; details: dose 10-30 µM, time 24.5 hrs

| SMILES | IC50 [2] | IC50 [4] | other results |
| --- | --- | --- | --- |
| COc1cc(-c2ccc(CN3CCCC3c3ccc(N(C)C)cc3)[nH]2)ccc1[N+](=O)[O-] (configuration not stated) | 7.15 µM | 12.2 µM | Activity (LAD2 [1]): 19.8%; half-life [3]: 7.8 min |
| Cc1cc(-c2ccc(CN3CCCC3c3cccc(N4CCC4)c3)[nH]2)ccc1[N+](=O)[O-] (configuration not stated) |  | 14.7 µM |  |
| CN(C)c1ccc(C2CCCCN2Cc2ccc(-c3ccc([N+](=O)[O-])cc3)[nH]2)cc1 (configuration not stated) | 8.47 µM | 16.2 µM |  |
| CN(C)c1ccc(C2COCCN2Cc2ccc(-c3ccc([N+](=O)[O-])cc3)[nH]2)cc1 (configuration not stated) |  | 80.2 µM |  |
| CN(C)c1ccc(C2COCCN2Cc2ccc(-c3ccc4c(c3)OCO4)[nH]2)cc1 (configuration not stated) | 10.2 µM | 12.9 µM |  |
| Cc1cc(-c2ccc(CN3CCCC3c3cccc(N[C@@H]4CCOC4)c3)[nH]2)ccc1[N+](=O)[O-] (some centres not stated) |  | 75.6 µM |  |
| Cc1cc(-c2ccc(CN3CCCC3c3cccc(N4CCC(O)C4)c3)[nH]2)ccc1[N+](=O)[O-] (configuration not stated) |  | 53.5 µM |  |
| CCNC(=O)c1cc(-c2ccc(CN3CCCC3c3ccc(N(C)C)cc3)[nH]2)ccc1[N+](=O)[O-] (configuration not stated) |  | 46.9 µM |  |
| Cc1ccc([N+](=O)[O-])c(-c2ccc(CN3CCCC3c3ccc(N(C)C)cc3)[nH]2)c1 (configuration not stated) | 10.6 µM | 12.1 µM |  |
| Cc1cc(-c2ccc(CN3CCCC3c3ccc(N4CCCC4)cc3)[nH]2)ccc1[N+](=O)[O-] (configuration not stated) | 11 µM | 7.48 µM | half-life [3]: 4.59 min |
| Cc1cc([N+](=O)[O-])ccc1-c1ccc(CN2CCCC2c2ccc(N(C)C)cc2)o1 (configuration not stated) | 52.5 µM | 7.77 µM | half-life [3]: 3.64 min |
| CN(C)c1ccc(C2CCCN2Cc2ccc(-c3ccc([N+](=O)[O-])cc3)[nH]2)cc1 (configuration not stated) | 16.2 µM | 13 µM |  |
| CN(C)C(=O)c1cc(-c2ccc(CN3CCCC3c3ccc(N(C)C)cc3)[nH]2)ccc1[N+](=O)[O-] (configuration not stated) |  | 25 µM |  |
| CC(C)Oc1cc(-c2ccc(CN3CCCC3c3ccc(N(C)C)cc3)[nH]2)ccc1[N+](=O)[O-] (configuration not stated) | 10.2 µM | 15.6 µM | half-life [3]: 1.91 min |
| CN(C)c1ccc(C2CCCN2Cc2c[nH]c(-c3ccc([N+](=O)[O-])cc3)c2)cc1 (configuration not stated) |  | 17.9 µM |  |
| CN(C)c1ccc(C2CCCN2Cc2ccc(-c3ccc(C(N)=O)cc3)[nH]2)cc1 (configuration not stated) |  | 79.6 µM |  |
| Cc1cc(-c2ccc(CN3CCCC3c3cccc(N4CCCC4)c3)[nH]2)ccc1[N+](=O)[O-] (configuration not stated) | 12.1 µM | 7.74 µM |  |
| Cc1ccc(-c2ccc(CN3CCCC3c3ccc(N(C)C)cc3)[nH]2)c([N+](=O)[O-])c1 (configuration not stated) | 10.3 µM | 20 µM |  |
| Cc1cc(-c2ccc(CN3CCCC3c3cccc(N(C)C)c3)[nH]2)ccc1[N+](=O)[O-] (configuration not stated) |  | 10 µM |  |

| SMILES | IC50 [2] | IC50 [4] | other results |
| --- | --- | --- | --- |
| CN(C)c1ccc(C2CCCN2Cc2ccc(-c3ccc([N+](=O)[O-])c(CO)c3)[nH]2)cc1 (configuration not stated) |  | 20.3 µM |  |
| CN(C)c1ccc(C2CCCN2Cc2ccc(-c3ccc([N+](=O)[O-])c(C(=O)O)c3)[nH]2)cc1 (configuration not stated) |  | > 100 µM |  |
| Cc1cc(-c2ccc(CN3CCCC3c3cccc(N[C@H]4CCOC4)c3)[nH]2)ccc1[N+](=O)[O-] (some centres not stated) |  | 56.2 µM |  |
| CN(C)c1ccc(C2CCCN2Cc2ccc(-c3ccc([N+](=O)[O-])c(C#N)c3)[nH]2)cc1 (configuration not stated) |  | 12.8 µM |  |
| CN(C)c1ccc(C2SCCN2Cc2ccc(-c3ccc([N+](=O)[O-])cc3)[nH]2)cc1 (configuration not stated) | 17.8 µM | 26.9 µM |  |
| CN(C)c1ccc(C2CCCN2Cc2ccc(-c3ccc(C#N)cc3)[nH]2)cc1 (configuration not stated) |  | 33 µM |  |
| CN(C)c1ccc(C2CCCN2Cc2ccc(-c3ccc([N+](=O)[O-])cc3)s2)cc1 (configuration not stated) |  | 14.1 µM |  |
| CN(C)c1ccc(C2CCCN2Cc2ccc(-c3ccc([N+](=O)[O-])cc3)n2C)cc1 (configuration not stated) |  | 10.7 µM |  |
| CN(C)c1ccc(C2CCCN2Cc2ccc(-c3ccc([N+](=O)[O-])c(C(N)=O)c3)[nH]2)cc1 (configuration not stated) |  | 37.1 µM |  |
| Cc1cc(-c2ccc(CN3CCCC3c3ccc(N(C)C)cc3)[nH]2)ccc1[N+](=O)[O-] (configuration not stated) | 9.57 µM | 8.12 µM | half-life [3]: 1.86 min |
| COc1cc(OC)c2c(=O)cc(-c3ccc(OC)c(OC)c3)oc2c1 |  |  | inhibition (LAD2 [5]): Active |
| CCn1c(CN2CCCC2c2ccc(N(C)C)cc2)ccc1-c1ccc([N+](=O)[O-])cc1 (configuration not stated) |  | 14.8 µM |  |
| CN(C)c1ccc(C2CCCN2Cc2cc(-c3ccc([N+](=O)[O-])cc3)[nH]n2)cc1 (configuration not stated) |  | > 100 µM |  |
| COC(=O)c1cc(-c2ccc(CN3CCCC3c3ccc(N(C)C)cc3)[nH]2)ccc1[N+](=O)[O-] (configuration not stated) | 6.52 µM | 8.1 µM | half-life [3]: 2.2 min |
| CN(C)c1ccc(C2CCCN2Cc2ncc(-c3ccc([N+](=O)[O-])cc3)[nH]2)cc1 (configuration not stated) |  | 17.7 µM |  |
| CN(C)c1ccc(C2CCCN2Cc2ccc(-c3ccc([N+](=O)[O-])c(N4CCCC4)c3)[nH]2)cc1 (configuration not stated) | 7.19 µM | 7 µM | inhibition (LAD2 [6]): Dose-Dependent Effect; half-life [3]: 1.47 min |
| Cc1cc([N+](=O)[O-])ccc1-c1ccc(CN2CCCC2c2ccc(N(C)C)cc2)[nH]1 (configuration not stated) | 7.26 µM | 17.9 µM |  |
| CN(C)c1ccc(C2CCCN2Cc2ccc(-c3ccc([N+](=O)[O-])cc3)o2)cc1 (configuration not stated) |  | 17.4 µM |  |
| CN(C)c1ccc(C2CCCN2Cc2cnc(-c3ccc([N+](=O)[O-])cc3)[nH]2)cc1 (configuration not stated) |  | 24 µM |  |
